# Where “and” joins values, the source holds several entries; their conditions need not be identical. Identical values can stand only once.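 Method: 48-hour compound exposure of cells in 96-well plates, five concentrations, linear interpolation of endpoints. GI50: concentration for 50% inhibition of growth. TGI denotes the concentration required for complete inhibition of growth.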
# Assays:
# Test in all cases: DTP human tumour cell line panel, 48 h
# 786-0 renal = tested on: 786-0 renal
# A498 renal = tested on: A498 renal
# A549 NSCLC = tested on: A549 NSCLC
# ACHN renal = tested on: ACHN renal
# BT-549 breast = tested on: BT-549 breast
# CAKI-1 renal = tested on: CAKI-1 renal
# CCRF-CEM leukemia = tested on: CCRF-CEM leukemia
# COLO 205 colon = tested on: COLO 205 colon
# DU-145 prostate = tested on: DU-145 prostate
# EKVX NSCLC = tested on: EKVX NSCLC
# HCC-2998 colon = tested on: HCC-2998 colon
# HCT-116 colon = tested on: HCT-116 colon
# HCT-15 colon = tested on: HCT-15 colon
# HL-60(TB) leukemia = tested on: HL-60(TB) leukemia
# HOP-62 NSCLC = tested on: HOP-62 NSCLC
# HOP-92 NSCLC = tested on: HOP-92 NSCLC
# HS 578T breast = tested on: HS 578T breast
# HT29 colon = tested on: HT29 colon
# IGROV1 ovarian = tested on: IGROV1 ovarian
# K-562 leukemia = tested on: K-562 leukemia
# KM12 colon = tested on: KM12 colon
# LOX IMVI melanoma = tested on: LOX IMVI melanoma
# M14 melanoma = tested on: M14 melanoma
# MALME-3M melanoma = tested on: MALME-3M melanoma
# MCF7 breast = tested on: MCF7 breast
# MDA-MB-231 breast = tested on: MDA-MB-231 breast
# MDA-MB-435 = tested on: MDA-MB-435
# MOLT-4 leukemia = tested on: MOLT-4 leukemia
# NCI-H226 lung = tested on: NCI-H226 lung
# NCI-H23 lung = tested on: NCI-H23 lung
# NCI-H460 lung = tested on: NCI-H460 lung
# NCI-H522 lung = tested on: NCI-H522 lung
# NCI/ADR-RES ovarian = tested on: NCI/ADR-RES ovarian
# OVCAR-3 ovarian = tested on: OVCAR-3 ovarian
# OVCAR-4 ovarian = tested on: OVCAR-4 ovarian
# OVCAR-5 ovarian = tested on: OVCAR-5 ovarian
# OVCAR-8 ovarian = tested on: OVCAR-8 ovarian
# PC-3 prostate = tested on: PC-3 prostate
# RPMI-8226 leukemia = tested on: RPMI-8226 leukemia
# RXF 393 renal = tested on: RXF 393 renal
# SF-268 CNS = tested on: SF-268 CNS
# SF-295 CNS = tested on: SF-295 CNS
# SF-539 CNS = tested on: SF-539 CNS
# SK-MEL-2 melanoma = tested on: SK-MEL-2 melanoma
# SK-MEL-28 melanoma = tested on: SK-MEL-28 melanoma
# SK-MEL-5 melanoma = tested on: SK-MEL-5 melanoma
# SK-OV-3 ovarian = tested on: SK-OV-3 ovarian
# SN12C renal = tested on: SN12C renal
# SNB-19 CNS = tested on: SNB-19 CNS
# SNB-75 CNS = tested on: SNB-75 CNS
# SR leukemia = tested on: SR leukemia
# SW-620 colon = tested on: SW-620 colon
# T-47D breast = tested on: T-47D breast
# TK-10 renal = tested on: TK-10 renal
# U251 CNS = tested on: U251 CNS
# UACC-257 melanoma = tested on: UACC-257 melanoma
# UACC-62 melanoma = tested on: UACC-62 melanoma
# UO-31 renal = tested on: UO-31 renal
structure (smiles),measurement,setting,value
CC(C)(C)c1cc(NC(=O)Nc2ccc(-c3cn4c(n3)sc3cc(OCCN5CCOCC5)ccc34)cc2)no1,GI50,786-0 renal,2.85 µM and 0.616 µM and 4.06 µM
same,TGI,786-0 renal,15.8 µM and 3.29 µM and > 10 µM
same,GI50,A498 renal,13.9 µM and 2.13 µM and > 10 µM
same,TGI,A498 renal,28.4 µM and 11 µM and > 10 µM
same,GI50,A549 NSCLC,3.93 µM and 1.48 µM and 6.89 µM
same,TGI,A549 NSCLC,19.5 µM and 13.8 µM and > 10 µM
same,GI50,ACHN renal,3.48 µM and 1.22 µM and 8.06 µM
same,TGI,ACHN renal,18.1 µM and 13.2 µM and > 10 µM
same,GI50,BT-549 breast,3.52 µM and 0.819 µM and 7.47 µM
same,TGI,BT-549 breast,20.3 µM and 5.16 µM and > 10 µM
same,GI50,CAKI-1 renal,10.9 µM and 2.6 µM and 6.93 µM
same,TGI,CAKI-1 renal,31.9 µM and 15.3 µM and > 10 µM
same,GI50,CCRF-CEM leukemia,0.18 µM and 1.49 µM
same,TGI,CCRF-CEM leukemia,18.6 µM and > 10 µM
same,GI50,COLO 205 colon,7.75 µM and 1.21 µM and 1.76 µM
same,TGI,COLO 205 colon,> 45.7 µM and 8.31 µM and 8.55 µM
same,GI50,DU-145 prostate,10.7 µM and 2.28 µM and 9.69 µM
same,TGI,DU-145 prostate,22.5 µM and 13.3 µM and > 10 µM
same,GI50,EKVX NSCLC,13 µM and 4.34 µM and > 10 µM
same,TGI,EKVX NSCLC,34.9 µM and 21.6 µM and > 10 µM
same,GI50,HCC-2998 colon,14.1 µM and 11.7 µM and 7.03 µM
same,TGI,HCC-2998 colon,61.5 µM and 52.3 µM and > 10 µM
same,GI50,HCT-116 colon,4.23 µM and 0.576 µM and 5.19 µM
same,TGI,HCT-116 colon,19 µM and 11.1 µM and > 10 µM
same,TGI,HCT-15 colon,> 91.9 µM and 14.8 µM and > 10 µM
same,TGI,HL-60(TB) leukemia,> 100 µM and 24.8 µM and > 10 µM
same,GI50,HOP-62 NSCLC,1.88 µM and 1.19 µM and 2.29 µM
same,TGI,HOP-62 NSCLC,6.57 µM and 10 µM and > 10 µM
same,GI50,HOP-92 NSCLC,3.25 µM and 0.398 µM and 1.59 µM
same,TGI,HOP-92 NSCLC,14.8 µM and 5.01 µM and > 10 µM
same,GI50,HS 578T breast,1.35 µM and 0.328 µM and 1.75 µM
same,TGI,HS 578T breast,25.3 µM and 2.92 µM and > 10 µM
same,GI50,HT29 colon,5.61 µM and 0.633 µM and 4.28 µM
same,TGI,HT29 colon,27 µM and 11.4 µM and > 10 µM
same,GI50,IGROV1 ovarian,9.38 µM and 2.33 µM and > 10 µM
same,TGI,IGROV1 ovarian,25.7 µM and 15.7 µM and > 10 µM
same,TGI,K-562 leukemia,11.9 µM and > 10 µM
same,GI50,KM12 colon,0.532 µM and 0.496 µM and 0.438 µM
same,TGI,KM12 colon,27.3 µM and 14.6 µM and > 10 µM
same,GI50,LOX IMVI melanoma,5.86 µM and 0.928 µM and 5.07 µM
same,TGI,LOX IMVI melanoma,30.1 µM and 8.21 µM and > 10 µM
same,GI50,M14 melanoma,8.49 µM and 1.28 µM and 6.56 µM
same,TGI,M14 melanoma,26.8 µM and 16 µM and > 10 µM
same,GI50,MALME-3M melanoma,2.62 µM and 1.59 µM and 6.17 µM
same,TGI,MALME-3M melanoma,14.7 µM and 13.3 µM and > 10 µM
same,GI50,MCF7 breast,2.04 µM and 0.357 µM and 1.41 µM
same,TGI,MCF7 breast,23.3 µM and 13.3 µM and > 10 µM
same,GI50,MDA-MB-231 breast,6.34 µM and 2.36 µM and 7.92 µM
same,TGI,MDA-MB-231 breast,21 µM and 16.3 µM and > 10 µM
same,GI50,MDA-MB-435,6.85 µM and 4.32 µM and 7.3 µM
same,TGI,MDA-MB-435,27.7 µM and 21.2 µM and > 10 µM
same,TGI,MOLT-4 leukemia,> 100 µM and 23.6 µM and > 10 µM
same,GI50,NCI-H226 lung,3.38 µM and 0.921 µM and 4.29 µM
same,TGI,NCI-H226 lung,18.6 µM and 5.24 µM and > 10 µM
same,TGI,NCI-H23 lung,26.8 µM and 12.8 µM and > 10 µM
same,GI50,NCI-H460 lung,3.72 µM and 0.657 µM and 4.56 µM
same,TGI,NCI-H460 lung,16.1 µM and 10.4 µM and > 10 µM
same,GI50,NCI-H522 lung,0.9 µM and 0.937 µM and 3.32 µM
same,TGI,NCI-H522 lung,15.5 µM and 13.5 µM and > 10 µM
same,GI50,NCI/ADR-RES ovarian,2.81 µM and 4.61 µM and 7.95 µM
same,TGI,NCI/ADR-RES ovarian,24.7 µM and 19.2 µM and > 10 µM
same,GI50,OVCAR-3 ovarian,6.61 µM and 1.54 µM and 6.76 µM
same,TGI,OVCAR-3 ovarian,19.4 µM and 8.38 µM and > 10 µM
same,GI50,OVCAR-4 ovarian,4.61 µM and 1.38 µM and 3.38 µM
same,TGI,OVCAR-4 ovarian,15.8 µM and 5.96 µM and > 10 µM
same,GI50,OVCAR-5 ovarian,21.7 µM and 9.53 µM and > 10 µM
same,TGI,OVCAR-5 ovarian,86.9 µM and 22.7 µM and > 10 µM
same,GI50,OVCAR-8 ovarian,1.14 µM and 0.544 µM and 1.51 µM
same,TGI,OVCAR-8 ovarian,12.3 µM and 11.8 µM and > 10 µM
same,GI50,PC-3 prostate,4.63 µM and 0.771 µM and 5.06 µM
same,TGI,PC-3 prostate,19.1 µM and 14.2 µM and > 10 µM
same,GI50,RPMI-8226 leukemia,0.363 µM and 0.16 µM and 0.34 µM
same,GI50,RXF 393 renal,0.8 µM and 0.489 µM and 0.881 µM
same,TGI,RXF 393 renal,6.26 µM and 3.49 µM and > 10 µM
same,GI50,SF-268 CNS,3.17 µM and 2.19 µM and 5.09 µM
same,TGI,SF-268 CNS,14.4 µM and 14.8 µM and > 10 µM
same,GI50,SF-295 CNS,1.01 µM and 0.404 µM and 1.42 µM
same,TGI,SF-295 CNS,18.1 µM and 2.55 µM and > 10 µM
same,GI50,SF-539 CNS,0.698 µM and 0.303 µM and 0.623 µM
same,TGI,SF-539 CNS,15.4 µM and 1.65 µM and > 10 µM
same,GI50,SK-MEL-2 melanoma,6.73 µM and 2.78 µM and > 10 µM
same,TGI,SK-MEL-2 melanoma,20.3 µM and 16.2 µM and > 10 µM
same,GI50,SK-MEL-28 melanoma,4.23 µM and 2.04 µM and > 10 µM
same,TGI,SK-MEL-28 melanoma,17.5 µM and 12 µM and > 10 µM
same,GI50,SK-MEL-5 melanoma,3.81 µM and 0.985 µM and 1.97 µM
same,TGI,SK-MEL-5 melanoma,18.2 µM and 3.31 µM and > 10 µM
same,GI50,SK-OV-3 ovarian,7.33 µM and 5.07 µM and > 10 µM
same,TGI,SK-OV-3 ovarian,22.4 µM and 19.2 µM and > 10 µM
same,TGI,SN12C renal,24.9 µM and 13.2 µM and > 10 µM
same,GI50,SNB-19 CNS,3.46 µM and 1.71 µM and 4.26 µM
same,TGI,SNB-19 CNS,20.3 µM and 17.1 µM and > 10 µM
same,GI50,SNB-75 CNS,1.41 µM and 2.38 µM and 1.94 µM
same,TGI,SNB-75 CNS,6.52 µM and 19.1 µM and > 10 µM
same,TGI,SR leukemia,> 47.9 µM and 11.2 µM and > 10 µM
same,GI50,SW-620 colon,11.4 µM and 2.86 µM and > 10 µM
same,TGI,SW-620 colon,27.2 µM and 17.6 µM and > 10 µM
same,GI50,T-47D breast,0.0864 µM and 0.107 µM and 0.223 µM
same,GI50,TK-10 renal,11.7 µM and 4.12 µM and > 10 µM
same,TGI,TK-10 renal,24.1 µM and 17.3 µM and > 10 µM
same,GI50,U251 CNS,0.941 µM and 0.511 µM and 2.72 µM
same,TGI,U251 CNS,12.9 µM and 5.25 µM and > 10 µM
same,GI50,UACC-257 melanoma,9.01 µM and 3.43 µM and > 10 µM
same,TGI,UACC-257 melanoma,23.5 µM and 16 µM and > 10 µM
same,GI50,UACC-62 melanoma,1.34 µM and 1.4 µM
same,TGI,UACC-62 melanoma,15.2 µM and 9.53 µM
same,GI50,UO-31 renal,3.62 µM and 0.45 µM and 3.93 µM
same,TGI,UO-31 renal,18.3 µM and 4.57 µM and > 10 µM

# Source: PubChem BioAssay (NCI)
